22 molecules from PubChem BioAssay (NCI) can be followed below.

Structures are written as SMILES.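 48-hour exposure; five concentrations; linearly interpolated endpoints. GI50 = concentration required for 50% inhibition of growth. TGI: total growth inhibition.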 Where only a bound is given, the exact number is not on record here.

Assay in all cases: NCI-60 cell line screen, 48 h
Test [1] relates to CCRF-CEM leukemia.
Test [2] concerns HCC-2998 colon.
Test [3] concerns HCT-116 colon.
Test [4] relates to HL-60(TB) leukemia.
Test [5] deals with M14 melanoma.
Test [6] relates to MALME-3M melanoma.
Test [7] relates to MDA-MB-231 breast.
Test [8] relates to MOLT-4 leukemia.
The subject of test [9] is OVCAR-3 ovarian.
The subject of test [10] is SK-OV-3 ovarian.
For test [11], the system named is T-47D breast.
Test [12] has as its system UO-31 renal.

As for `O=[N+]([O-])/C(C(Cl)=C(Cl)Cl)=C(/Sc1ccccc1)N1CCOCC1`, the TGI in [1] stood at 4.66 µM; in test [2] it was 29.9 µM; in test [3], 3.27 µM; in [4] it was 4.51 µM; in test [5] it was 9.24 µM; in [6], 18.2 µM. For the same molecule, the TGI in test [7] was found to be 19.8 µM; in test [8], 4.61 µM; in [9] it was 8.87 µM; in test [10], 79.8 µM; in test [11], 16 µM; in test [12], 16.6 µM.
Consider `C#CCSc1cnc2ccccc2c1Sc1c[nH]c2ccccc2c1=O`, for which the TGI in test [1] was more than 100 µM; in [2], 38.2 µM; in test [3], 32.5 µM; in test [4], 88.9 µM; in [5], more than 100 µM; in test [6], more than 100 µM. The TGI in test [7] was more than 100 µM; in test [8] it was more than 100 µM; in test [9] it was more than 100 µM; in test [10], more than 100 µM; in test [11], 42.5 µM; in test [12] it was 5.99 µM.
As for `C/C(=N/NC(=S)N(Cc1ccccn1)Cc1ccccn1)c1cnccn1`, the TGI is more than 100 µM in test [1]; more than 43.4 µM in [2]; 14.2 µM in test [3]; more than 68.2 µM in test [4]; more than 35.9 µM in test [5]; 7.53 µM in test [6]. The TGI in test [7] was 21.7 µM; in test [8] it was more than 34.4 µM; in [9] it was 12.6 µM; in test [10], 4.27 µM; in test [11] it was more than 33.8 µM; in test [12], 0.525 µM.
`COC(=O)c1ccc(NCC2=CC(=O)c3ccccc3C2=O)cc1`: the TGI in test [1] was more than 100 µM; in test [2], more than 63.3 µM; in test [3], 35.3 µM; in test [4], more than 25.9 µM; in test [5] it was 37.1 µM; in test [6], 19.9 µM. Moreover, the TGI in test [7] was 10.3 µM; in [8], more than 29.1 µM; in test [9], 26.7 µM; in [10], 35.3 µM; in test [11] it was 32.5 µM; in test [12], 35.8 µM.
As for `O=C1CNc2cc(N3CCN(c4cccc(C(F)(F)F)c4)CC3)ccc2N1`, the TGI in test [1] was more than 100 µM; in [2], more than 100 µM; in [3], more than 100 µM; in test [4], more than 83.5 µM; in test [5], more than 100 µM; in test [6] it was 69.9 µM. Moreover, the TGI is more than 100 µM in [7]; more than 84.3 µM in test [8]; more than 100 µM in test [9]; more than 100 µM in [10]; more than 100 µM in test [11]; more than 100 µM in [12].
Consider `CO/N=C1/C(n2[nH]c(=O)n(-c3ccccc3)c2=O)C2C=CC1n1c(=O)n(-c3ccccc3)c(=O)n12` (stereo not given), for which the TGI in test [1], in test [2], in [3], in test [4], in test [5] and in test [6] was more than 100 µM each time. The TGI in test [7], in test [8], in [9], in test [10], in test [11] and in test [12] was more than 100 µM in each case.
Turning to `CC(=O)O/C(=C(/C#N)C(=O)O)C1C(C(=O)O)C(c2ccccc2[N+](=O)[O-])C=C(c2ccco2)N1c1ccncc1` (stereo not given), the TGI in test [1] was more than 100 µM; in [2], 9.45 µM; in test [3] it was 3.06 µM; in test [4], more than 100 µM; in test [5] it was 9.33 µM; in test [6], 23 µM. Moreover, the TGI in test [7] came to 14.6 µM; in [8], 14.4 µM; in test [9], 8.07 µM; in test [10], 23.9 µM; in [11] it was 18.4 µM; in test [12], 7.53 µM.
For the molecule `C(/C=N/NC1=NCCN1)=N\NC1=NCCN1`, the TGI in [1] was more than 100 µM; in [2], more than 100 µM; in test [3], more than 100 µM; in [4], 34.2 µM; in [5] it was more than 100 µM; in [6], more than 100 µM. The TGI in test [7], in test [8], in [9], in test [10], in test [11] and in [12] was more than 100 µM in each case.
Take `OCCCN(CCc1ccc(Cl)c(Cl)c1)CCN1CCCC1`: the TGI in test [1] is more than 100 µM; in test [2], 32.9 µM; in test [3] it was more than 100 µM; in [4], more than 100 µM; in test [5], 32.9 µM; in test [6], 41.5 µM. In addition, the TGI in test [7], in test [8], in test [9], in test [10], in [11] and in test [12] was more than 100 µM in each case.
For the molecule `CN(C)CCCNC(=O)CNC(=O)c1cc(NC(=O)c2cc(NC(=O)c3cc(NC(=O)CCNC(=O)c4cc(NC(=O)c5cc(NC(=O)c6nccn6C)cn5C)cn4C)cn3C)cn2C)cn1C`, the TGI is 49.2 µM in [1]; more than 100 µM in [2]; more than 100 µM in [3]; 94.1 µM in [4]; more than 100 µM in [5]; more than 100 µM in test [6]. Further, the TGI in test [7] is more than 100 µM; in [8], 57 µM; in test [9], more than 100 µM; in test [10], more than 100 µM; in test [11], more than 100 µM; in test [12], more than 100 µM.
As for `COc1ccc(CN=C2Nc3ccncc3S(=O)(=O)N2c2ccccc2)cc1`, the TGI in test [1] is 82.4 µM; in [2] it was 54.9 µM; in test [3], more than 100 µM; in test [4] it was 36.8 µM; in test [5], more than 100 µM; in test [6], more than 100 µM. Besides, the TGI was more than 100 µM in test [7]; 44.7 µM in [8]; more than 100 µM in test [9]; more than 100 µM in [10]; more than 100 µM in test [11]; more than 100 µM in test [12].
Turning to `O=C(c1ccco1)N1CCN(C(=O)c2ccco2)C1=S`, the TGI in test [1] turned out to be 5.7 µM; in [2] it was 25.7 µM; in test [3] it was 23.2 µM; in [4], 7.16 µM; in test [5] it was 40.5 µM; in test [6], 23 µM. Besides, the TGI in test [7] was found to be 25.4 µM; in test [8], 24.5 µM; in [9], 11.6 µM; in [10] it was 40.8 µM; in test [11], 27.8 µM; in test [12] it was 10.1 µM.
`C/C=C/[C@@H]1O[C@H](CC#C[Si](C)(C)C)[C@@]2(C=O)C(C)=CC[C@H](C(C)C)[C@@H]12`: the TGI in test [1] came out at 6.24 µM; in test [2], 36.5 µM; in test [3] it was 36.9 µM; in [4] it was 19.2 µM; in [5], 37.2 µM; in [6], 37.2 µM. The TGI was 36.6 µM in test [7]; 34.5 µM in test [8]; 42.4 µM in test [9]; more than 100 µM in test [10]; more than 100 µM in test [11]; 3.53 µM in [12].
`COC(=O)c1cc(C)ccc1CC(Cc1ccccc1C)C(=O)OC` (stereo not given): the TGI in test [1] was 44.3 µM; in test [2] it was more than 100 µM; in [3], more than 100 µM; in test [4], 36.3 µM; in [5] it was more than 100 µM; in test [6] it was more than 100 µM. In addition, the TGI was more than 100 µM in [7]; 24.7 µM in test [8]; more than 100 µM in test [9]; more than 100 µM in test [10]; more than 100 µM in test [11]; more than 100 µM in [12].
As for `O=C(O)c1cc2c(cc1S(=O)(=O)O)C1C(C3C2C2(Cl)C(Cl)=C(Cl)C3(Cl)C2(Cl)Cl)C2(Cl)C(Cl)=C(Cl)C1(Cl)C2(Cl)Cl` (stereo not given), the TGI is 37.3 µM in test [1]; 51.2 µM in test [2]; 32.3 µM in [3]; 79.9 µM in test [4]; more than 100 µM in test [5]; more than 100 µM in test [6]. The TGI in test [7] is 50.9 µM; in [8], more than 100 µM; in test [9], more than 100 µM; in [10], more than 100 µM; in test [11], more than 100 µM; in test [12] it was more than 100 µM.
For `Cc1ccc(NNc2cc(=O)[nH]c(=O)[nH]2)cc1Cl`, the TGI in test [1] was 62.4 µM; in [2], 29.8 µM; in [3] it was 28.1 µM; in test [4], 18.3 µM; in [5], 26.9 µM; in [6], 31.9 µM. Also, the TGI is 29.9 µM in test [7]; 58.3 µM in test [8]; 28 µM in test [9]; more than 100 µM in [10]; 25.1 µM in test [11]; 15.3 µM in test [12].
With `COc1ccc2c(-c3ccc(O)cc3)c(Oc3ccccc3)c(=O)oc2c1`, the TGI in [1] was more than 100 µM; in test [2] it was more than 69.3 µM; in test [3], more than 93.5 µM; in test [4] it was more than 100 µM; in [5] it was more than 100 µM; in [6], more than 86.3 µM. In addition, the TGI in [7] is more than 100 µM; in test [8] it was more than 100 µM; in [9], more than 100 µM; in test [10] it was more than 100 µM; in test [11], more than 100 µM; in [12] it was 27.5 µM.
Turning to `COc1ncc(C#CC(=O)c2ccccc2OC)c(OC)n1`, the TGI in [1] came to 1.58 µM; in [2], 13 µM; in [3], 9.72 µM; in [4], 4.63 µM; in [5], 5.05 µM; in test [6] it was 3.36 µM. Also, the TGI in test [7] was 2.75 µM; in [8], 1.61 µM; in test [9], 8.27 µM; in test [10], more than 60.4 µM; in [11], 22.9 µM; in [12], 2.97 µM.
Take `O/N=C1\CC2(N3CCOCC3)CCC1(Cc1ccccc1)CC2`: the TGI is more than 100 µM in test [1]; more than 100 µM in [2]; 90.6 µM in [3]; more than 100 µM in test [4]; more than 100 µM in [5]; more than 100 µM in test [6]. In addition, the TGI in test [7] was 67 µM; in test [8], more than 100 µM; in [9] it was more than 100 µM; in test [10], 83 µM; in [11], more than 100 µM; in test [12], more than 100 µM.
`CCOC(=O)/C=C/[C@H](O[Si](c1ccccc1)(c1ccccc1)c1ccccc1)C(C)(C)C`: the TGI is more than 31.6 µM in test [1]; more than 31.6 µM in [2]; more than 31.6 µM in test [3]; more than 100 µM in test [4]; more than 100 µM in test [5]; more than 31.6 µM in [6]. The TGI in test [7], in test [8], in test [9], in [10], in test [11] and in test [12] was more than 31.6 µM each time.
Take `C=CC1(CBr)CCC(C(C)(C)Br)O1` (stereo not given): the TGI in [1] was found to be 6.51 µM; in [2] it was 30.5 µM; in [3] it was 18.5 µM; in test [4] it was 0.893 µM; in test [5], 27.7 µM; in test [6], 27.8 µM. Besides, the TGI in test [7] amounted to 28.3 µM; in [8], 7.06 µM; in [9], 22.6 µM; in [10], 29 µM; in test [11], 15.5 µM; in [12], 25.7 µM.
For the molecule `CC(C)(N=NC(C)(C)C1=NCCN1)C1=NCCN1`, the TGI in test [1], in test [2], in [3], in [4], in test [5] and in [6] was more than 100 µM in each case. Also, the TGI in test [7], in test [8], in [9], in test [10], in test [11] and in test [12] was more than 100 µM throughout. The GI50 in test [4] was more than 100 µM.
